What all share (type): in vivo, human
A short description of assay [1]: laboratory methods: fasting serum glucose, triglycerides, cholesterol in obese patients (Example 5). The method, then: Blood and urine samples for laboratory tests were taken before entry, and after 12 and 24 weeks.
Metabolic factors: In order to evaluate changes in the glucose and lipid metabolism of the patients during the study, triglyceride acid (TGA), cholesterol and fasting glucose were analyzed.
All clinical-chemical analyses apart from TGA and test strips for urine, were carried out at Department of Clinical Chemistry, Hvidovre Hospital, in accordance with their routine methods and assays, including the department's running quality control. The methods and the assays are routine procedures and are well-documented (7,40-48). TGA was analyzed and test strips for urine assessed at the Department of Internal Medicine, Division of Endocrinology, Hvidovre Hospital's own laboratory following the same routine procedures as above (26).
The mean difference of blood pressure, heart rate and laboratory data from the initial values (week 0) at week 12 and at week 24 was compared to initial values for each treatment group by Students' one sample t-test (SAS). Comparison of the treatment groups at a particular visit was done by one-way analysis of variance (SAS.GLM). The difference from initial values was used in order to prevent chance events influencing the results. Patients with high values, for instance, who dropped out would thus influence the mean value at the next control, without a real difference being present.

Assay [2] in a line: laboratory methods in healthy volunteers: serum glucose, NEFA, glycerol (Example 2). The conditions noted are these: oral. The method, then:
Through the indwelling antecubital cannula, blood was sampled without stasis in iced syringes. The blood samples were then centrifuged at 4° C. and nonesterified fatty acids (NEFA) were immediately extracted from the blood samples and later determined as described in (22). The concentration of glucose in plasma was determined using the glucose oxidase method (23), the concentration of glycerol in plasma was determined as described by Laurell and Tibbling (24), the concentration of lactate in plasma was described using the method described by Noll (25), and the concentration of triglyceride in plasma was determined as described by Giegel (26). Blood samples for the determination of methylxanthine metabolites was collected in tubes containing reduced glutathione and ethylene glycol-bis(β-aminoethyl)-N,N,N',N'-tetraacetic acid (EGTA). Samples were immediately centrifuged and the plasma was stored at -40° C. until the determination of methylxanthines was performed (see Example 4). Immunoreactive insulin, pancreatic glucagon and C-peptide concentrations were measured in the plasma samples using radioimmunoassay kits purchased from Novo, Copenhagen. All plasma aliquots for determination of pancreatic hormones and methylxanthine metabolites were coded and analyzed in a random order to avoid any systematic error due to the order of analysis. The concentrations of sodium and potassium in the plasma samples were determined by flame spectrophotometry.

A short description of assay [3]: thermogenic effect: energy expenditure in healthy volunteers by indirect calorimetry (Example 2). The conditions noted are these: for Mean energy expenditure during 3 hours: oral single dose, not placebo-corrected; for Energy expenditure greater than placebo: mean±SE, minimum figure; for thermogenic effect (in words): human, in vivo. The method, then:
The study was conducted in two parts. The first part was designed as a placebo-controlled, double-blind trial on the effect of 3 different doses of caffeine, 3 different doses of ephedrine and 2 placebo samples. The order of the tests were not entirely randomized, but organized in a sequence that allowed testing for a carry-over effect.
6 healthy volunteers of normal weight (3 of each sex) aged between 20 and 32 were included after informed consent was obtained. The average age of the 6 volunteers was 25 (±1) years, height, 179 (±11) cm; body weight, 70 (±13) kg; percentage of overweight, -1.7 (±8.3) % and body fat, 13 (±3) kg. The numbers in parenthesis are the standard deviation. The percentages of overweight was calculated from the individual body weight (IBW) using the midpoint of the medium frame (MMF) given in the Metropolitan Life Insurance Company tables of desirable weights (1): [formula]
A. Treatment with ephedrine comprising capsules with 10 mg, 20 mg or 40 mg of ephedrine hydrochloride, respectively.
B. Treatment with caffeine comprising capsules with 100 mg, 200 mg or 400 mg of caffeine, respectively. […]
The capsules were administered orally as single doses and swallowed with 300 ml of tap water (20° C.).
All blood samples for determination of substrate, metabolite and hormone concentrations were collected form the antecubital vein. Blood samples were taken at -30, 0, 30, 60, 90, 120, 150 and 180 minutes relative to the capsule intake (time 0). The subjects breathed through a low-resistance Scuba one-way mouthpiece. After about 10 minutes of adaptation, expiratory gas was collected in Douglas bags for 10 minute periods. Gas collection was made after each blood sampling.
Energy expenditure was measured by indirect calorimetry. Expiratory gas was continuously analyzed for the content of oxygen and carbon dioxide with a Godart Rapox Oxygenmeter and a Beckman LB-1 Medical Gas Analyzer. Respiratory steady state was assumed to be present, when the end-expiratory carbon dioxide fraction was constant. Expiratory gas was collected in Douglas bags and analyzed for the content of oxygen and carbon dioxide with Radiometer gas-electrodes connected to an acid-base analyzer (PHM 71, Copenhagen, Denmark), and the volume of expiration gas was measured with a gas meter. […] The standard gasses were analyzed with a Scholander microtechnique with a measuring error on gas fraction being <0.0005%, i.e. the error on measurement of expired gas being within ±0.1-0.2% (19). […] A fixed protein catabolism was assumed, since the error on calculating the energy expenditure by omitting the exact correction from urinary nitrogen was negligible (20). The energy expenditure was calculated taking de novo lipogenesis into account (21).
The responses to a test substance were estimated separately for each subject as the difference between the integrated numerical area of the response curve (by a trapezoidal approach) and the rectangular area determined by the basal values. To estimate the predictive, theoretical effect of combinations of ephedrine and caffeine, the single dose responses were added after subtracting the average placebo response. This calculation was performed separately for each subject before statistical analysis. A two-way analysis of variance for randomized blocks was performed (28) to test differences between experimental periods within the same experiment and to test differences between the responses to different stimuli (test substances). Post-hoc testing was applied to compare two means (28).

Where [4] appears, read: week 12, difference from initial.
Where [5] appears, read: week 24, difference from initial.

Data on one compound can be found in patent publication US5422352A, “Slimming pharmaceutical composition” (Nycomed Dak A/S, priority 1989, dated 1995).

In the case of `Cn1c(=O)c2c(ncn2C)n(C)c1=O` [Caffeine, caffeine], the figures for the “Mean difference in fasting serum glucose” value in assay [1] (setting [4]) and in assay [1] (setting [5]) were -0.18 mmol/L and -0.42 mmol/L, respectively. For the same compound, the “Mean difference in serum triglycerides” value was -0.11 mmol/L in assay [1] (setting [4]) and -0.32 mmol/L in assay [1] (setting [5]). Further, in assay [1] (setting [5]), the “Mean difference in fasting serum cholesterol” value was -0.28 mmol/L. Further, the “serum nonesterified fatty acids and glycerol (in words)” value in assay [2] was “increased the concentrations of NEFA and glycerol in the serum”. In assay [2] (vs placebo), the “serum glucose (in words)” value is “hyperglycemic effect”. Also, the “Energy expenditure/(placebo value)” value in assay [3] (100 mg caffeine) is reported as 2.5; in assay [3] (200 mg caffeine), 2.2; in assay [3] (400 mg caffeine), 6.2. Besides, the figures for the “Mean energy expenditure during 3 hours” value in assay [3] (100 mg caffeine), in assay [3] (200 mg caffeine) and in assay [3] (400 mg caffeine) were 15.4 kcal/3 h, 13.4 kcal/3 h and 38.6 kcal/3 h, respectively. The “Energy expenditure greater than placebo” value in assay [3] (100 mg caffeine) came to 9.2±5.7 kcal/3 h; in assay [3] (200 mg caffeine) it was 7.2±6.0 kcal/3 h; in assay [3] (400 mg caffeine), 32.4±8.2 kcal/3 h. Further, the “thermogenic effect (in words)” value in assay [3] was “a significant relation between caffeine dose and thermogenic response (energy expenditure)”; in assay [3] (listed as caffeine), “possess thermogenic activity”.
